Assay [1] concerns the target T1, human TNFR1 extracellular domain (ECD) protein (Homo sapiens, UniProt P19438).
T1 construct: HRV 3C protease cleavage site (C); 6His (C, cleaved yes); made in house; host or cells: Sf21 insect cells (baculovirus), secreted
T1 sequence (P19438 30-211): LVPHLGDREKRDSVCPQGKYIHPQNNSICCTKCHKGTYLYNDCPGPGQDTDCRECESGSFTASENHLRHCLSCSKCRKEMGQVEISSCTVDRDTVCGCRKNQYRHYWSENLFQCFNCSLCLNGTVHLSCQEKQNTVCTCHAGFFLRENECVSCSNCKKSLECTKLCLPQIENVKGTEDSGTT
Kind of assay: SPR binding affinity to captured human TNFR1 ECD. The method, boiled down: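 Peptide binding kinetics read by SPR in HEPES pH 7.4 running buffer with 2% DMSO, with TNFR2 ECD tested in parallel for off-target binding. Receptor ECDs, insect-cell expressed and biotinylated at C-terminal avi-tag, were captured via streptavidin. KA derived from association and dissociation rate constants.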
(In general: In SPR one partner is held on a chip, and binding of the other changes the refractive index at the surface.)

The target in assay [2] is T2, TNFα-induced NF-κB signal transduction pathway (TNFR1 signaling) in THP-1 cells (Homo sapiens, UniProt P19438).
T2 sequence (P19438 30-455): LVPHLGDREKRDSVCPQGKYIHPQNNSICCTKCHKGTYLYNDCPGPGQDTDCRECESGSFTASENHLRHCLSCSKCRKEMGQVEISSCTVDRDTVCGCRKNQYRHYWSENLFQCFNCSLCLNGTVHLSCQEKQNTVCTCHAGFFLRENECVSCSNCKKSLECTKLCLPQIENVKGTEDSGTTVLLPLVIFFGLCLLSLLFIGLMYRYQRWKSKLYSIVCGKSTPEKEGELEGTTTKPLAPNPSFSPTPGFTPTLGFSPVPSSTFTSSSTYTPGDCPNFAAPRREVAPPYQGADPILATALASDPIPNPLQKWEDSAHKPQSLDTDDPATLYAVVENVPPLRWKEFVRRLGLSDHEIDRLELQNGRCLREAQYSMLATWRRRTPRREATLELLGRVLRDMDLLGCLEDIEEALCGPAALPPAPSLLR
The assay is described as follows: THP-1 Lucia NF-κB reporter cell assay, inhibition of TNFα-induced NF-κB signaling. Type of assay: cell-based. To be noted: THP-1 NF-κB Lucia reporter cells, 10 ng/mL TNFα, 16-18 h, secreted luciferase; read-out: THP-1 IC50. The method, boiled down:
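IC50 from a 4-parameter logistic fit of secreted luciferase luminescence (QUANTI-Luc), normalised to min/max controls. Reporter THP-1 cells were exposed to peptides for 1 h at 37 °C before 10 ng/mL TNFα (final) was added overnight (16–18 h).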

Numbered stars: 1 amine (or outer) side, 2 acyl side, 3 side chain; on linkers, the order of the positions; unused ones are H or OH. Bridge positions count the residues as written; N and C are the ends. Square brackets hold non-standard residues; d marks the D form. Peptide text beside a SMILES is read from it. Trp(βS-Me,7-OMe) = COc1cccc2c([C@H](C)[C@H](N)C(=O)O)c[nH]c12; Achc(cis-1,4) = O=C([C@H]1CC[C@@H](N[*:1])CC1)[*:2]; Trp(7-Cl) = N[C@@H](Cc1c[nH]c2c(Cl)cccc12)C(=O)O; X15 = C[C@H](c1ccc(O)cc1)[C@H](N[*:1])C(=O)[*:2]; Phe(4-CONH2) = NC(=O)c1ccc(C[C@H](N)C(=O)O)cc1; Phe(4-COOH) = N[C@@H](Cc1ccc(C(=O)O)cc1)C(=O)O; Trp(7-aza) = N[C@@H](Cc1c[nH]c2ncccc12)C(=O)O; Phe(4-CH2NH2) = NCc1ccc(C[C@H](N)C(=O)O)cc1; Ala(4-thiazolyl) = N[C@@H](Cc1cscn1)C(=O)O; Pip(5R-OH) = O=C(O)[C@@H]1CC[C@@H](O)CN1; X4 = O=C([C@H]1C=C[C@@H](N[*:1])C1)[*:2]; X1 = O=C([C@@H]1CC[C@H](N[*:1])C1)[*:2]; hPhe = N[C@@H](CCc1ccccc1)C(=O)O; 4Pal = N[C@@H](Cc1ccncc1)C(=O)O; NMeE = CN[C@@H](CCC(=O)O)C(=O)O; dHyp = O=C(O)[C@H]1C[C@H](O)CN1; αMeS = C[C@](N)(CO)C(=O)O; NMeA = CN[C@@H](C)C(=O)O; Nle = CCCC[C@H](N)C(=O)O; Sar = CNCC(=O)O

What is called Kd is a measure of binding affinity in units of concentration. Low values mean tighter binding, high ones weaker binding. One may read the IC50 as the midpoint of a concentration-inhibition curve. Take `CCCC[C@@H]1NC(=O)CSC[C@@H](C(N)=O)NC(=O)[C@H]([C@@H](C)c2c[nH]c3c(OC)cccc23)NC(=O)CN(C)C(=O)[C@H](Cc2ccc(O)cc2)NC(=O)[C@H](Cc2ccc(C(=O)O)cc2)NC(=O)[C@](C)(CO)NC(=O)[C@H](Cc2c[nH]c3c(Cl)cccc23)NC(=O)[C@H](Cc2ccncc2)NC(=O)[C@H](CC(N)=O)NC(=O)[C@H](CCC(=O)O)N(C)C(=O)[C@H](Cc2c[nH]c3ncccc23)NC(=O)[C@H](CO)NC(=O)[C@H]([C@H](C)c2ccc(O)cc2)NC1=O` [SEQ ID NO. 243] ({CH2CO}-[Nle][X15]S[Trp(7-aza)][NMeE]N[4Pal][Trp(7-Cl)][αMeS][Phe(4-COOH)]Y[Sar][Trp(βS-Me,7-OMe)]C-NH2; thioether N-14): the Kd in assay [1] was 0.06 nM. In addition, the IC50 in assay [2] amounted to 3.2 nM.
Taken in the same sequence, the figures for `CCCC[C@@H]1NC(=O)[C@H]2CC[C@H](CC2)NC(=O)[C@H]([C@@H](C)c2c[nH]c3c(OC)cccc23)NC(=O)CN(C)C(=O)[C@H](Cc2ccc(O)cc2)NC(=O)[C@H](Cc2ccc(C(=O)O)cc2)NC(=O)[C@](C)(CO)NC(=O)[C@H](Cc2c[nH]c3c(Cl)cccc23)NC(=O)[C@H](Cc2ccncc2)NC(=O)[C@H](CC(N)=O)NC(=O)[C@H](CCC(=O)O)N(C)C(=O)[C@H](Cc2c[nH]c3ccccc23)NC(=O)[C@H](CO)NC(=O)[C@H](Cc2ccc(CN)cc2)NC1=O` [SEQ ID NO. 244] (cyclo([4Pal][Trp(7-Cl)][αMeS][Phe(4-COOH)]Y[Sar][Trp(βS-Me,7-OMe)][Achc(cis-1,4)][Nle][Phe(4-CH2NH2)]SW[NMeE]N)) were 0.09 nM and 4.5 nM.
Taken in the same sequence, the figures for `CCCC[C@@H]1NC(=O)[C@@H]2CC[C@@H](C2)NC(=O)[C@H]([C@@H](C)c2c[nH]c3c(OC)cccc23)NC(=O)CN(C)C(=O)[C@H](Cc2ccc(C(=O)O)cc2)NC(=O)[C@H](Cc2ccc(C(N)=O)cc2)NC(=O)[C@](C)(CO)NC(=O)[C@H](Cc2c[nH]c3c(Cl)cccc23)NC(=O)[C@H](Cc2ccc(C(=O)O)cc2)NC(=O)[C@H](CC(N)=O)NC(=O)[C@H]2C[C@H](O)CN2C(=O)[C@H](Cc2c[nH]c3ccccc23)NC(=O)[C@@H]2CC[C@@H](O)CN2C(=O)[C@H](Cc2ccncc2)NC1=O` [SEQ ID NO. 247] (cyclo([4Pal][Pip(5R-OH)]W[dHyp]N[Phe(4-COOH)][Trp(7-Cl)][αMeS][Phe(4-CONH2)][Phe(4-COOH)][Sar][Trp(βS-Me,7-OMe)][X1][Nle])) were 0.07 nM and 0.5 nM.
Taken in the same sequence, the figures for `C[C@H]1C(=O)N[C@@H](CC(N)=O)C(=O)N[C@@H](Cc2ccncc2)C(=O)N[C@@H](Cc2c[nH]c3ccccc23)C(=O)N[C@@](C)(CO)C(=O)N[C@@H](Cc2ccc(C(=O)O)cc2)C(=O)N[C@@H](Cc2ccc(O)cc2)C(=O)N(C)CC(=O)N[C@@H](Cc2c[nH]c3ccccc23)C(=O)N[C@@H]2C=C[C@@H](C2)C(=O)N[C@@H](CCc2ccccc2)C(=O)N[C@@H](Cc2ccncc2)C(=O)N[C@@H](CO)C(=O)N[C@@H](Cc2c[nH]c3ccccc23)C(=O)N1C` [SEQ ID NO. 248] (cyclo([4Pal]SW[NMeA]N[4Pal]W[αMeS][Phe(4-COOH)]Y[Sar]W[X4][hPhe])) were 2 nM and 10.6 nM.
The compound `CCCC[C@@H]1NC(=O)CSC[C@@H](C(N)=O)NC(=O)[C@H]([C@@H](C)c2c[nH]c3c(OC)cccc23)NC(=O)CN(C)C(=O)[C@H](Cc2ccc(O)cc2)NC(=O)[C@H](Cc2ccc(C(=O)O)cc2)NC(=O)[C@](C)(CO)NC(=O)[C@H](Cc2c[nH]c3c(Cl)cccc23)NC(=O)[C@H](Cc2ccncc2)NC(=O)[C@H](CC(N)=O)NC(=O)[C@H](CCC(=O)O)N(C)C(=O)[C@H](Cc2c[nH]c3ncccc23)NC(=O)[C@H](Cc2cscn2)NC(=O)[C@H](Cc2ccncc2)NC1=O` [SEQ ID NO. 253] ({CH2CO}-[Nle][4Pal][Ala(4-thiazolyl)][Trp(7-aza)][NMeE]N[4Pal][Trp(7-Cl)][αMeS][Phe(4-COOH)]Y[Sar][Trp(βS-Me,7-OMe)]C-NH2; thioether N-14) gave a Kd in assay [1] of 1.09 nM. The IC50 in assay [2] is 4.4 nM.

The values above are taken from patent US20240287138A1, “CYCLIC PEPTIDES FOR INHIBITING TNF RECEPTOR 1 ACTIVITY” (Merck Sharp & Dohme LLC, priority 2023, published 2024).
